Compound: C1COCCN1CC2=CC(=O)C(=CO2)OCCCCCSC3=C4C=CC(=CC4=NC=C3)C(F)(F)F [EHT 1864]
Experiment: relative viability (nuclei count vs DMSO), 5 days (fraction); higher = more cells survive
Method in brief: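 Five library-drug doses, separated by factors of √10, were pinned into 1536-well plates holding lung cancer cell lines after an overnight stay at 37 °C. Cells were fixed, permeabilised and Hoechst-stained in one step after 5 days without medium change, then imaged at 4×. Viability compares treated-well with vehicle-well nuclei, counted in MetaXpress, as a median across plates. Passing plates had control CV below 25% and at least one doubling.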

Cell Line | relative viability (0.04 µM) | relative viability (0.1265 µM) | relative viability (0.4 µM) | relative viability (1.265 µM) | relative viability (4 µM)
NCI-H441 | 1.03 | 0.747 | 0.941 | 1.12 | 1.17
NCI-H1944 | 1.09 | – | 1 | 1.01 | 0.879
NCI-H23 | 0.909 | 0.696 | 0.912 | 1.02 | 1.03
HARA | 0.962 | 0.782 | 1.1 | 1.14 | 1.05
NCI-H1792 | 0.906 | – | 0.723 | 0.988 | 1
NCI-H1703 | 0.929 | 0.707 | 0.939 | 0.776 | 0.657
NCI-H2342 | 0.778 | 0.856 | 0.803 | 0.929 | 1.03
CAL-12T | 1.02 | 0.902 | 0.991 | 0.963 | 0.887
NCI-H727 | 0.924 | 0.909 | 0.936 | 0.979 | 0.946
NCI-H2085 | 0.988 | 0.897 | 0.987 | 1.01 | 0.903
NCI-H1395 | 0.933 | 0.752 | 1.01 | 0.86 | 0.861
NCI-H1648 | 1.2 | 0.735 | 0.954 | 1.02 | 1.43
NCI-H460 | 1.01 | 0.921 | 0.966 | 0.965 | 0.857
A549 | 0.88 | 0.937 | 0.921 | 0.948 | 0.883
IA-LM | 0.925 | – | 0.908 | 0.764 | 0.855
EKVX | 0.96 | 0.931 | 0.946 | 0.962 | 0.968
ChaGo-K-1 | 1.02 | 0.976 | 0.996 | 0.95 | 0.992
NCI-H1755 | 0.989 | 0.955 | 0.927 | 0.979 | 0.938
NCI-H2228 | 0.974 | 0.876 | 0.934 | 0.776 | 1
NCI-H2087 | 1.12 | – | 0.956 | 0.832 | 0.942
LU99A | 0.883 | 0.758 | 0.968 | 1 | 0.893
NCI-H1355 | 0.949 | 0.732 | 0.965 | 0.984 | 0.987
NCI-H520 | 0.885 | 0.889 | 0.889 | 1.04 | 1.02
NCI-H661 | 1.01 | 1.01 | 0.975 | 0.941 | 0.926
NCI-H650 | 0.894 | 0.846 | 0.968 | 1.01 | 1.03
NCI-H647 | 1.01 | 0.775 | 1.03 | 1.02 | 0.908

Cell Line | relative viability (0.04 µM) | relative viability (0.1265 µM) | relative viability (0.4 µM) | relative viability (1.265 µM) | relative viability (4 µM)
201T | 0.97 | 0.92 | 1.02 | 0.974 | 0.913
NCI-H838 | 0.915 | 0.851 | 0.99 | 1.01 | 1
SW 1573 | 1.03 | 0.817 | 1.01 | 0.931 | 0.902
PC-14 | 1.01 | 0.823 | 1.04 | 1.03 | 0.939
LK-2 | 1.04 | 0.793 | 0.979 | 1.04 | 0.929
COR-L23 | 0.964 | 0.885 | 0.956 | 0.971 | 0.824
NCI-H2170 | 0.904 | 0.889 | 0.996 | 1.06 | 1.01
HCC-78 | 0.968 | 0.907 | 0.923 | 0.922 | 1.13
NCI-H2405 | 1.07 | 1 | 0.994 | 0.821 | 0.994
SK-LU-1 | 1.07 | 0.93 | 1.01 | 0.993 | 0.939
EMC-BAC-2 | 1.02 | 0.896 | 1.04 | 0.993 | 0.971
NCI-H1650 | 0.892 | 0.676 | 0.907 | 0.826 | 0.754
NCI-H596 | 0.947 | 0.829 | 1.02 | 0.929 | 0.991
LCLC-97TM1 | 1.01 | 0.762 | 1.01 | 0.881 | 0.903
H3255 | 0.903 | 0.82 | 0.963 | 0.946 | 1.01
LXF-289 | 0.961 | 0.932 | 0.95 | 0.961 | 0.886
UMC-11 | 1 | 0.804 | 0.901 | 0.985 | 1.17
LC-2-ad | 0.966 | 0.716 | 1.03 | 0.946 | 0.934
NCI-H1793 | 0.729 | 0.781 | 0.929 | 0.928 | 0.963
A-427 | 0.975 | 0.922 | 1.03 | 0.956 | 0.882
NCI-H322M | 0.95 | 0.921 | 0.942 | 1.05 | 0.923
HCC-366 | 1.01 | 0.804 | 1.01 | 1.07 | 1.06
NCI-H1975 | 0.886 | 0.954 | 0.887 | 0.841 | 0.895
NCI-H1437 | 1.05 | 0.94 | 0.936 | 0.839 | 0.762
NCI-H2009 | 0.971 | 0.945 | 1.03 | 0.906 | 0.877
NCI-H1651 | 0.944 | 0.958 | 0.918 | 0.949 | 0.98

Cell Line | relative viability (0.04 µM) | relative viability (0.1265 µM) | relative viability (0.4 µM) | relative viability (1.265 µM) | relative viability (4 µM)
LCLC-103H | 0.987 | 0.903 | 1.01 | 1.12 | 1.02
NCI-H1666 | 1.05 | 0.879 | 0.957 | 0.916 | 1.08
NCI-H1734 | 1.07 | 0.702 | 1.03 | 1.09 | 0.906
EPLC-272H | 1.04 | 0.952 | 0.926 | 1.04 | 1.03
NCI-H2023 | 0.944 | 0.817 | 0.893 | 0.925 | 0.939
BEN | 0.864 | 0.812 | 1.05 | 0.871 | 0.967
COR-L 105 | 0.893 | 0.869 | 1.05 | 0.975 | 0.945
ABC-1 | 1.13 | 0.964 | 0.946 | 0.7 | 0.627
HCC-15 | 1.03 | – | 0.976 | 0.941 | 1
NCI-H358 | 0.888 | 0.834 | 1.06 | 0.939 | 0.933
PC-3 [JPC-3] | 1.1 | 0.908 | 1.02 | 1.05 | 0.953
NCI-H1993 | 0.965 | – | 0.957 | 1.03 | 0.873
SK-MES-1 | 0.97 | 0.943 | 1.02 | 0.967 | 0.974
NCI-H1563 | 0.992 | 0.887 | 0.959 | 0.896 | 0.882
EBC-1 | 0.942 | 0.865 | 0.961 | 0.931 | 0.924
NCI-H1915 | 0.964 | – | 1.01 | 0.98 | 0.92
RERF-LC-KJ | 1.02 | 0.928 | 0.936 | 0.994 | 0.956
LOU-NH91 | 0.973 | 0.909 | 1.05 | 1.04 | 0.892
NCI-H2347 | 1.07 | 0.75 | 1.01 | 0.966 | 1.03
NCI-H2126 | 0.983 | 0.914 | 0.986 | 0.985 | 0.999
HCC-827 | 1.03 | 0.821 | 1.07 | 0.99 | 1.02
Calu-6 | 1 | 0.93 | 1.01 | 0.991 | 0.955
NCI-H3122 | 0.99 | 0.98 | 0.994 | 0.999 | 0.945
HOP-62 | 1.05 | – | 1 | 1.04 | 1.07
HCC-44 | 0.987 | 0.867 | 0.97 | 0.935 | 0.974
